Among the data in PubChem BioAssay AID652005 (Sanford-Burnham Center for Chemical Genomics, 2013) are IC50 values, retold here.

Active and inactive are the calls of the source. No rule for the calls is given here.

The target of this assay is Low molecular weight phosphotyrosine protein phosphatase (Homo sapiens) (UniProt P24666). In words: inhibition of human LMPTP enzyme activity – biochemical, absorbance, orthogonal assay, dose response (AID 652005). The settings on record: recombinant LMPTP, absorbance-based phosphatase activity.
Chain of Low molecular weight phosphotyrosine protein phosphatase (Homo sapiens) (P24666 whole entry, looked up): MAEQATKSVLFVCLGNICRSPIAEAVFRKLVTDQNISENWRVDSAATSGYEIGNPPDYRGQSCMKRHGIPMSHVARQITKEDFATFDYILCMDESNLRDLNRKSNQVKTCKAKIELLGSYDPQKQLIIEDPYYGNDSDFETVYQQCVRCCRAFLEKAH
Turning to `O=C(NCc1ccc2c(c1)OCO2)c1c(O)nc2sccn2c1=O`, the IC50 was > 80 µM (inactive). For `Cc1csc2nc(O)c(C(=O)NCc3ccc4c(c3)OCO4)c(=O)n12` the value was > 80 µM (inactive); for `CCc1ccc(C=C2SC(=S)N(CCCC(=O)Nc3ccc(C(=O)O)cc3)C2=O)cc1`, > 80 µM (inactive); for `CC(C1SC(=S)NC1=O)C1SC(=S)NC1=O` (stereo not drawn), > 80 µM (inactive). The entry for `CCN(c1ccccc1)S(=O)(=O)c1cc(C(=O)O)ccc1C` is “inactive”; for `O=C(/C=C/c1ccc(Cl)cc1)NC(=S)Nc1ccc(C(=O)O)cc1` it is 15 µM. The figure for `O=C(N=Nc1c(O)[nH]c2ccc(F)cc12)c1ccc(NS(=O)(=O)c2cccs2)cc1` is > 80 µM (inactive).

For the molecule `O=c1[nH]c2ccccc2n1C1CCN(Cc2ccc(-c3[nH]c4cc5ncnc5cc4nc3-c3ccccc3)cc2)CC1`, the IC50 is > 80 µM (inactive).
